# Laboratory results taken from patent publication EP1170007A1, “REMEDIES” (Takara Shuzo Co, Ltd., priority 1999, dated 2000).
# Assays:
# mouse = test: Single oral dose toxicity in mouse; assay type: in vivo
# [1] = system: HGF production, MRC-5 cells; test: Enhancement of HGF production in MRC-5 cells (ELISA); assay type: cell-based, Human; settings: 24 hours, negative control defined as 100% (7.2 ng/ml)
# Procedure: MRC-5 cells (CCL171, Dainippon Pharmaceutical) were suspended in a DME medium (Bio Whittaker) containing 10% fetal calf serum at a concentration of 1 x 10^5 cells/ml. 500 µl of the suspension was placed into a 48-well cell culture plate. After culturing at 37°C in the presence of 5% CO2 for 24 hours, the medium was exchanged for a DME medium containing 1% fetal calf serum. Then, one of samples was added thereto. The plate was incubated for additional 24 hours. The medium was then recovered, and the amount of HGF in the culture medium was measured using Quantikine Human Hepatocyte Growth Factor (HGF) ELISA Kit (Funakoshi). The amount of HGF produced was expressed defining a negative control as 100%. In this case, the amount of HGF produced for the negative control was 7.2 ng/ml. Cyclopentenone (at a final concentration of 20, 40 or 160 µM), GM (at a final concentration of 20, 40, 80 or 160 µM), or dipropionylcyclopentenone (at a final concentration of 32 or 64 µM) was added as a sample. As a negative control, distilled water was added in the same volume as the sample. As a positive control, prostaglandin E1 was added at a final concentration of 0.01, 0.1, 1 or 10 µM.
# [2] = system: human insulin-like growth factor-1 (h-IGF-1) production in Hs68 cells; test: Enhancement of h-IGF-1 production in Hs68 cells (ELISA); assay type: cell-based
# Procedure: (1) Human newborn foreskin […] Hs68 cells (ATCC CRL-1635) were cultured in a D-MEM medium (Bio Whittaker) containing 10% fetal calf serum (FBS; Gibco BRL) in the presence of 5% CO2 at 37°C to saturation in a culture vessel. Then, the cells were suspended in the medium at a concentration of 3 x 10^5/ml using a trypsin-EDTA solution (Bio Whittaker). 200 µl of the suspension was dispensed into each well of a 96-well microtiter plate. When the cells were almost saturated in the culture vessel after culturing for 5 days, the medium was discarded and a medium containing 4HCP at a concentration of 40, 100 or 200 µM was added thereto. The culture supernatant was recovered at intervals of 24 hours for up to 96 hours. The effect of 4HCP on enhancement of human insulin-like growth factor-1 (h-IGF-1) production in Hs68 cells was determined using ELISA-Kit for h-IGF-1 (Diagnostic System Labo).
# (2) Hs68 cells were cultured in a D-MEM medium containing 10% fetal calf serum in the presence of 5% CO2 at 37°C to saturation in a culture vessel. Then, the cells were suspended in the medium at a concentration of 3 x 10^5/ml using a trypsin-EDTA solution. 200 µl of the suspension was dispensed into each well of a 96-well microtiter plate. When the cells were almost saturated in the culture vessel after culturing for 5 to 7 days, the medium was discarded and the medium containing cyclopentenone or GM at a concentration of 0, 2.5, 5, 10 or 20 µM was added thereto. The culture supernatant was recovered at 1, 3, 6, 12, 24 or 48 hours. The effect of cyclopentenone or GM on the production (enhancement of expression) of h-IGF-1 in Hs68 cells was determined using ELISA-Kit for h-IGF-1. […] The amount of h-IGF-1 produced 6 hours after the addition was about twice the amount for the control with no addition. […] (3) Hs68 cells were cultured in a D-MEM medium containing 10% fetal calf serum in the presence of 5% CO2 at 37°C to saturation in a culture vessel. Then, the cells were suspended in the medium at a concentration of 3 x 10^5/ml using a trypsin-EDTA solution. 200 µl of the suspension was dispensed into each well of a 96-well microtiter plate. When the cells were almost saturated in the culture vessel after culturing for 5 to 7 days, the medium was discarded and the medium containing 4HCP, a compound of formula (XVIII) (4HCP-GSH) or glutathione (GSH) at a concentration of 0, 25, 50, 100 or 200 µM was added thereto. The culture supernatant was recovered at 1, 3, 6, 12, 24 or 48 hours. The effect on the production (enhancement of expression) of h-IGF-1 in Hs68 cells was determined using ELISA-Kit for h-IGF-1. As a result, when 4HCP was added at a concentration of 25 to 200 µM, h-IGF production in Hs68 cells became maximal at 1 hour and decreased thereafter as the time went by. […] Significant enhancement of h-IGF-1 production was observed when cultured for 10 to 30 minutes. […]
# [3] = system: nerve growth factor production by L-M cells; test: Enhancement of nerve growth factor production in L-M cells (enzyme immunoassay); assay type: cell-based, Rat
# Procedure: Rat fibroblast L-M cells (ATCC CCL-1.2) were suspended in a M199 medium (Gibco) containing 0.5% Bacto Peptone (Gibco) at a concentration of 1.0 x 10^5 cells/ml. 1 ml of the suspension was inoculated into each well of a 24-well plate. The cells were cultured aseptically. After culturing for 2 days, the medium was removed and substituted with a M199 medium containing 0.5% bovine serum albumin (Sigma). Then, cyclopentenone (final concentration of 1 to 25 µM), 4HCP (Aldrich) (final concentration of 12.5µM) or dipropionylcyclopentenone (final concentration of 3.1 to 9.4 µM) was added thereto. […]
# After completion of the incubation, the concentration of nerve growth factor in the culture was measured by enzyme immunoassay (NGF Emax Immuno Assay System: Promega). […]
# [4] = single dose orally administered to a mouse at 100 mg/kg
# [5] = Example 3-(3): 100 µM, cultivation time 1 hour, control 7.2
# [6] = Example 3-(3): 100 µM, cultivation time 3 hour, control 8.9
# [7] = Example 3-(3): 100 µM, cultivation time 6 hour, control 6.3
# [8] = Example 3-(3): 100 µM, cultivation time 12 hour, control 0
# [9] = Example 3-(3): 100 µM, cultivation time 24 hour, control 0
# [10] = Example 3-(3): 100 µM, cultivation time 48 hour, control 0
# [11] = Example 3-(3): 200 µM, cultivation time 1 hour, control 7.2
# [12] = Example 3-(3): 200 µM, cultivation time 3 hour, control 8.9
# [13] = Example 3-(3): 200 µM, cultivation time 6 hour, control 6.3
# [14] = Example 3-(3): 200 µM, cultivation time 12 hour, control 0
# [15] = Example 3-(3): 200 µM, cultivation time 24 hour, control 0
# [16] = Example 3-(3): 200 µM, cultivation time 48 hour, control 0
molecule,measurement,setting,value
CCCCCC(=O)OC1C=CC(=O)C1OC(=O)CCCCC (stereo not shown) [dihexanoylcyclopentenone],death after single oral dose,mouse; [4],no example of death was observed
"N[C@@H](CCC(=O)N[C@@H](CSC1C=C(O)C(=O)C1)C(=O)NCC(=O)O)C(=O)O (stereo partly shown) [GM, 2-hydroxy-4-glutathion-S-yl-2-cyclopenten-1-one]",Increase in HGF production,[1]; 20 µM,154%
same,Increase in HGF production,[1]; 40 µM,179%
same,Increase in HGF production,[1]; 80 µM,243%
same,Increase in HGF production,[1]; 160 µM,319%
same,death after single oral dose,"mouse; mouse, in vivo, po, 100 mg/kg",no example of death was observed
same,production of h-IGF-1 in Hs68 cells (result in words),[2]; Example 3-(2): 10 to 20 µM,production of h-IGF in Hs68 cells was observed 3 hours after the addition
same,amount of h-IGF-1 produced relative to the control with no addition,"[2]; Example 3-(2): 10 to 20 µM, 6 hours after the addition",about twice
O=C(OC1C=CC(=O)C1OC(=O)c1ccccc1)c1ccccc1 (stereo not shown),death after single oral dose,mouse; [4],no example of death was observed
"O=C1C=CC(O)C1 (stereo not shown) [4HCP, 4-hydroxy-2-cyclopenten-1-one]",Nerve growth factor concentration,"[3]; 12.5 µM, 24 hours, 0 µM control 0.138 (Table 2)",0.327 ng/mL
same,production of nerve growth factor by L-M cells (result in words),[3]; 24 hours incubation,enhanced the production of nerve growth factor by L-M cells in a concentration-dependent manner
same,death after single oral dose,"mouse; mouse, in vivo, po, 100 mg/kg",no example of death was observed
same,Activity of enhancing h-IGF-1 production,"[2]; Example 3-(1): 40 µM, cultivation time 24 hour, control 0",0 ng/mL
same,Activity of enhancing h-IGF-1 production,"[2]; Example 3-(1): 40 µM, cultivation time 48 hour, control 0",0 ng/mL
same,Activity of enhancing h-IGF-1 production,"[2]; Example 3-(1): 40 µM, cultivation time 72 hour, control 0",0 ng/mL
same,Activity of enhancing h-IGF-1 production,"[2]; Example 3-(1): 40 µM, cultivation time 96 hour, control 0",0 ng/mL
same,time at which the activity of enhancing h-IGF production in Hs68 cells became maximal,"[2]; Example 3-(1): 100 µM or more, sampled at 24, 48, 72, 96 hours",24 h
same,Activity of enhancing h-IGF-1 production,"[2]; Example 3-(1): 100 µM, cultivation time 24 hour, control 0",39.9 ng/mL
same,Activity of enhancing h-IGF-1 production,"[2]; Example 3-(1): 100 µM, cultivation time 48 hour, control 0",10.0 ng/mL
same,Activity of enhancing h-IGF-1 production,"[2]; Example 3-(1): 100 µM, cultivation time 72 hour, control 0",9.6 ng/mL
same,Activity of enhancing h-IGF-1 production,"[2]; Example 3-(1): 100 µM, cultivation time 96 hour, control 0",4.4 ng/mL
same,Activity of enhancing h-IGF-1 production,"[2]; Example 3-(1): 200 µM, cultivation time 24 hour, control 0",37.9 ng/mL
same,Activity of enhancing h-IGF-1 production,"[2]; Example 3-(1): 200 µM, cultivation time 48 hour, control 0",10.4 ng/mL
same,Activity of enhancing h-IGF-1 production,"[2]; Example 3-(1): 200 µM, cultivation time 72 hour, control 0",9.9 ng/mL
same,Activity of enhancing h-IGF-1 production,"[2]; Example 3-(1): 200 µM, cultivation time 96 hour, control 0",4.2 ng/mL
same,Activity of enhancing IGF-1 production,"[2]; Example 3-(3): 25 µM, cultivation time 1 hour, control 7.2",30.6 ng/mL
same,Activity of enhancing IGF-1 production,"[2]; Example 3-(3): 25 µM, cultivation time 3 hour, control 8.9",29.5 ng/mL
same,Activity of enhancing IGF-1 production,"[2]; Example 3-(3): 25 µM, cultivation time 6 hour, control 6.3",9.6 ng/mL
same,Activity of enhancing IGF-1 production,"[2]; Example 3-(3): 25 µM, cultivation time 12 hour, control 0",0 ng/mL
same,Activity of enhancing IGF-1 production,"[2]; Example 3-(3): 25 µM, cultivation time 24 hour, control 0",0 ng/mL
same,Activity of enhancing IGF-1 production,"[2]; Example 3-(3): 25 µM, cultivation time 48 hour, control 0",0 ng/mL
same,Activity of enhancing IGF-1 production,"[2]; Example 3-(3): 50 µM, cultivation time 1 hour, control 7.2",49.5 ng/mL
same,Activity of enhancing IGF-1 production,"[2]; Example 3-(3): 50 µM, cultivation time 3 hour, control 8.9",42.1 ng/mL
same,Activity of enhancing IGF-1 production,"[2]; Example 3-(3): 50 µM, cultivation time 6 hour, control 6.3",27.8 ng/mL
same,Activity of enhancing IGF-1 production,"[2]; Example 3-(3): 50 µM, cultivation time 12 hour, control 0",0 ng/mL
same,Activity of enhancing IGF-1 production,"[2]; Example 3-(3): 50 µM, cultivation time 24 hour, control 0",0 ng/mL
same,Activity of enhancing IGF-1 production,"[2]; Example 3-(3): 50 µM, cultivation time 48 hour, control 0",0 ng/mL
same,expression of h-IGF-1 (result in words),"[2]; Example 3-(3): 100 µM or more, at 48 hours",expression of h-IGF-1 was observed
same,Activity of enhancing IGF-1 production,[2]; [5],52.8 ng/mL
same,Activity of enhancing IGF-1 production,[2]; [6],47.2 ng/mL
same,Activity of enhancing IGF-1 production,[2]; [7],31 ng/mL
same,Activity of enhancing IGF-1 production,[2]; [8],22.1 ng/mL
same,Activity of enhancing IGF-1 production,[2]; [9],25.6 ng/mL
same,Activity of enhancing IGF-1 production,[2]; [10],32 ng/mL
same,Activity of enhancing IGF-1 production,[2]; [11],59.2 ng/mL
same,Activity of enhancing IGF-1 production,[2]; [12],51.7 ng/mL
same,Activity of enhancing IGF-1 production,[2]; [13],44.4 ng/mL
same,Activity of enhancing IGF-1 production,[2]; [14],42.1 ng/mL
same,Activity of enhancing IGF-1 production,[2]; [15],50.3 ng/mL
same,Activity of enhancing IGF-1 production,[2]; [16],50.2 ng/mL
same,time at which h-IGF production in Hs68 cells became maximal,"[2]; Example 3-(3): 25 to 200 µM, sampled at 1 to 48 hours",1 h
"CC(C)(C)OC1C=CC(=O)C1OC(C)(C)C (stereo not shown) [4,5-di-t-butylcyclopentenone ether]",death after single oral dose,"mouse; mouse, in vivo, po, 100 mg/kg",no example of death was observed
NC(CCC(=O)NC(CSC1CC(=O)CC1O)C(=O)NCC(=O)O)C(=O)O (stereo not shown) [4HCP-GSH],Activity of enhancing IGF-1 production,[2]; [5],8.4 ng/mL
same,Activity of enhancing IGF-1 production,[2]; [6],12 ng/mL
same,Activity of enhancing IGF-1 production,[2]; [7],10.6 ng/mL
same,Activity of enhancing IGF-1 production,[2]; [8],6.1 ng/mL
same,Activity of enhancing IGF-1 production,[2]; [9],6.7 ng/mL
same,Activity of enhancing IGF-1 production,[2]; [10],1.4 ng/mL
same,Activity of enhancing IGF-1 production,[2]; [11],33.3 ng/mL
same,Activity of enhancing IGF-1 production,[2]; [12],37.9 ng/mL
same,Activity of enhancing IGF-1 production,[2]; [13],24.7 ng/mL
same,Activity of enhancing IGF-1 production,[2]; [14],20.4 ng/mL
same,Activity of enhancing IGF-1 production,[2]; [15],20.9 ng/mL
same,Activity of enhancing IGF-1 production,[2]; [16],27.8 ng/mL
same,activity of enhancing h-IGF-1 (result in words),[2]; Example 3-(3): 100 to 200 µM,exhibit an activity of enhancing h-IGF-1 in a concentration-dependent manner
di-2-hexenoylcyclopentenone,death after single oral dose,mouse; [4],no example of death was observed
"N[C@@H](CCC(=O)N[C@@H](CS)C(=O)NCC(=O)O)C(=O)O [glutathione, reference compound]",activity of enhancing h-IGF-1 (result in words),"[2]; Example 3-(3): glutathione alone added, 25 to 200 µM",no significant activity of enhancing h-IGF-1 was observed
